Reference: ChEMBL document CHEMBL1145718, “Two new nitrogenous sesquiterpenes from the sponge Axinyssa aplysinoides” (1997)

How the values were obtained:
Assay type in all cases: functional
[1] = system: Saccharomyces cerevisiae; assay: DNA damaging activity against wild type yeast assessed as drug level required to produce 12 mm zone of inhibition assessed per 100 uL
[2] = system: Saccharomyces cerevisiae; assay: DNA damaging activity against DNA repair-deficient delta RAD52 mutant yeast assessed as drug level required to produce 12 mm zone of inhibition assessed per 100 uL
[3] = system: Saccharomyces cerevisiae; assay: DNA damaging activity against DNA repair-deficient delta RAD52/delta TOP1 mutant yeast assessed as drug level required to produce 12 mm zone of inhibition assessed per 100 uL

| Compound | IC12 [1] [µg] | IC12 [2] [µg] | IC12 [3] [µg] |
| --- | --- | --- | --- |
| CC(C)[C@@H]1C[C@@H]2C(C)(NC(=O)NCCc3ccccc3)[C@H]3C[C@@H]1C[C@]2(C)C3 (stereo partly specified) | 14 | 45 | 12 |
| CC(C)[C@@H]1C[C@@H]2C(C)(NC=O)[C@H]3C[C@@H]1C[C@]2(C)C3 (stereo partly specified) | 31 | 51 | 4.8 |
